Measurements reported in patent publication US7415306B2, “Transdermal delivery system for anti-emetic medication” (TransPharma Medical Ltd., priority 2002, dated 2008).
Structures can show the parent of a compound that is named as a salt.

Assays:
[1] = Pharmacokinetic study of transdermal drug delivery in rats (granisetron hydrogel patch with or without ViaDerm); format: in vivo, Male Sprague-Dawley rats; conditions: 3% granisetron HCl hydrogel patch
Experimental: Male Sprague-Dawley rats (400-500 g, Harlan Laboratories Ltd., Jerusalem, Israel) were anesthetized (5 mg/kg ketamine i.p.) and were placed dorsally. Anesthesia was maintained until the end of the transdermal treatment and during blood sampling by injections of 0.1 ml ketamine and Xyalzine (60-80 mg/ml) every 30-40 min. The abdominal skin was shaved and cleaned with isopropyl alcohol. After 30 minutes, the transepidermal water loss was measured in order to verify skin integrity and RF-micro-channeling took place on the abdominal skin of a test group. […] A granisetron patch, made of a solution of 3% granisetron HCl soaked in a hydrogel sheet of 1.4 cm , was then attached to the skin surface for 24 hr in special containers glued to the skin by silicon medical glue. Blood samples were taken from the heart into heparinized tubes. After centrifugation, plasma samples were kept at −20° C. until analyzed for drug levels by HPLC.
The procedure was basically performed according to Kudoh et al, J. Chromatography 660(1994) p. 205. Phosphate buffer (500 μl, pH 7, 67 mM) was mixed with one ml plasma. […] Aliquots (30 μl) from each sample were injected into the HPLC (1050 HP), equipped with a pre-packed C8 column (BDS-Hypersil, UK; C-8 100×3.0 mm, 3 μm), an auto-sampler, and a fluorescence detector (Model 1046A). Granisetron was detected by excitation at 305 nm and emission at 365 nm. […]

[2] = Clinical patch-size study with granisetron patches and ViaDerm (plasma levels, erythema/edema)
Excerpt: The purpose of the first phase study was to determine patch size per drug dose. The target population for the study was healthy male and female volunteers who signed informed consent and fulfilled the following inclusion criteria: • 1. Are capable of understanding and signing an informed consent • 2. Are between the ages of 18 and 60 years • 3. Are medically stable • 4. Have fair skin color that enable to observe erythema and/or edema. • 5. Have two hands with no obvious marks, bruises, cuts, and abrasions on the back of the hand. • 6. Hemoglobin more than 12 gm % in females and more than 14 gm % in males.
Granisetron HCl patches were applied on the skin of the upper arm and fore arm of healthy adult volunteers. […] Irritation was examined by monitoring edema and erythema as described in Example 6. […]
ViaDerm performance was assessed by a study conducted with twenty healthy, adult volunteers, 10 males and 10 females. […] Measuring Transdermal Water Loss (TEWL) at a skin site treated with ViaDerm in comparison to an adjacent untreated skin assessed formation of micro-channels. Safety of ViaDerm was evaluated by measuring irritation (erythema and edema) at the treatment site using a scale of zero to eight in accordance with Draize irritation index (Table 4). The response to irritation induced by ViaDern was assessed by a Cumulative Irritation Index (Table 5). […]

[3] = Clinical bioavailability study with granisetron patches and ViaDerm versus oral delivery (plasma levels, irritation); conditions: human, 1 tablet of 1 mg twice daily, reached only for short time periods, unsteady profile
Experimental: Granisetron HCl patches were applied on the skin of the upper arm and fore arm of healthy adult volunteers. […] Irritation was examined by monitoring edema and erythema as described in Example 6.
The experiment was conducted with six subjects, in a crossover manner. Each subject received four different treatments, i.e. various administration methods at various sites of patch application, with at least six days washout period between treatments.
ViaDerm performance was assessed by a study conducted with twenty healthy, adult volunteers, 10 males and 10 females. […] Each subject received 10 treatments, in a randomized manner such that a given treatment was applied to different subjects and/or in each subject at different sites. • Treatment protocol. The treatment sites were the inner arm and hand. […] Measuring Transdermal Water Loss (TEWL) at a skin site treated with ViaDerm in comparison to an adjacent untreated skin assessed formation of micro-channels. […]

## CN1C2CCCC1CC(NC(=O)c1nn(C)c3ccccc13)C2 (centres unmarked) [granisetron, granisetron hydrochloride]
[1]; rats not treated with ViaDerm, peak at 2.5 hours after application
  granisetron plasma level (peak): lower than 50 ng/ml
[1]; rats pretreated with ViaDerm, reached during first 12 hours, maintained for additional 12 hours
  granisetron plasma level: above 200 ng/ml
[2]; ViaDerm + patches of 2.8, 5.6 and 8.4 cm^2
  maximal concentration of granisetron in human plasma versus patch size: linearly correlated with the size of patch
[2]; human, ViaDerm + granisetron patch (3% drug) covering 5.6 cm^2, applied 24 hours
  maximal plasma concentration: above 4 ng/ml
[3]
  plasma levels of granisetron: above 4 ng/ml
